This note sets out measurements from US12122761B2, “2-azaspiro[3.4]octane derivatives as M4 agonists” (NOVARTIS AG, priority 2019, dated 2024).

Test [1] deals with T1, human cloned CHRM5 receptor (M5_CHO) (Homo sapiens, UniProt P08912).
T1 construct: expressed in transfected cells; host or cells: CHO (M5_CHO)
T1 sequence (P08912 1-532): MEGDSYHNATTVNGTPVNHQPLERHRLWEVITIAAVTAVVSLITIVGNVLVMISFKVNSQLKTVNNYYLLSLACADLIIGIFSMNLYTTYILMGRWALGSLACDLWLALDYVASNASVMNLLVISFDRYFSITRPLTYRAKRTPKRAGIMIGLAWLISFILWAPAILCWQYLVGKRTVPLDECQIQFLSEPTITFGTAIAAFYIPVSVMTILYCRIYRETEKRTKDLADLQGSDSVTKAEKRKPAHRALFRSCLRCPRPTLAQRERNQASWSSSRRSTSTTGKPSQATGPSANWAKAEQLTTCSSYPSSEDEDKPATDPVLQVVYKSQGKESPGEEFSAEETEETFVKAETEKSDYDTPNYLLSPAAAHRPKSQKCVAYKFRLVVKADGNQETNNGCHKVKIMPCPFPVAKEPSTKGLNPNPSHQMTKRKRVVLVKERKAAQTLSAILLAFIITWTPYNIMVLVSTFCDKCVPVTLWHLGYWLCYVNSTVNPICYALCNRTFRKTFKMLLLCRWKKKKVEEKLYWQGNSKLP
As to the kind of experiment: CHRM5 Ca++ Flux Assay (agonist mode, FDSS 7000EX). Type of test: cell-based. To be noted: for Emax: Percent Activity measured to EC100 of Carbachol, read-out: M5 FDSS PA; for EC50: agonist mode, geometric mean if tested more than once, read-out: M5 FDSS EC50. In short, it runs like this:
(§1)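 Stable CHO-K1 lines (human M3 or M5), calcium-dye loaded ≥1 h, assayed in Ca/Mg-free HBSS + 20 mM HEPES + 2.5 mM probenecid. 11-pt dose response, triplicate, 3 min fluorescence read. 4-parameter regression; % activity vs carbachol EC100.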

The target in test [2] is T2, human cloned CHRM3 receptor (M3_CHO cells) (Homo sapiens, UniProt P20309).
T2 construct: expressed in transfected cells; host or cells: CHO-K1
T2 sequence (P20309 whole entry): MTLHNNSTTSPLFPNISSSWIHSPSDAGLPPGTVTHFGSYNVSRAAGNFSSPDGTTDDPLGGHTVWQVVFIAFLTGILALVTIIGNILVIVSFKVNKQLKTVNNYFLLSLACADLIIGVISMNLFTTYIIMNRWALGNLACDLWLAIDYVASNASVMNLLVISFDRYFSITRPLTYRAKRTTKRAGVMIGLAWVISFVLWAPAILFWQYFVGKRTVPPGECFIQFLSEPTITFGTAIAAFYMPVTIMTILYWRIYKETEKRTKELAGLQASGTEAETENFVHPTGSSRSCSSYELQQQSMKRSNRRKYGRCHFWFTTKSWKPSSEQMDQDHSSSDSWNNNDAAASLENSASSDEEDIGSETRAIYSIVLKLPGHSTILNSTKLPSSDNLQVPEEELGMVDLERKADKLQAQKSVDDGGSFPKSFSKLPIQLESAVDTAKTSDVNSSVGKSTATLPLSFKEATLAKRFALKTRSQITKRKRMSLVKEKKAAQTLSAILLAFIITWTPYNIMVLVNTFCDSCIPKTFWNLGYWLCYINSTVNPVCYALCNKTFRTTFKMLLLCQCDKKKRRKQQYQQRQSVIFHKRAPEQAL
As to the kind of experiment: CHRM3 Ca++ Flux Assay (agonist mode, FDSS 7000EX). It counts as cell-based. To be noted: for Emax: Percent Activity measured to EC100 of Carbachol, read-out: M3 FDSS PA; for EC50: agonist mode, geometric mean if tested more than once, read-out: M3 FDSS EC50. In outline: as §1

Take `CC1(COc2ccccc2C2CCN([C@@H]3CCC4(C3)CN(c3nnco3)C4)CC2)CCOCC1` [Example 2E, (R)-2-(6-(4-(2-((4-methyltetrahydro-2H-pyran-4-yl)methoxy)phenyl)piperidin-1-yl)-2-azaspiro[3.4]octan-2-yl)-1,3,4-oxadiazole]: the Emax in test [1] and in test [2] was 0% throughout. Also, the EC50 in test [1] and in test [2] was above 25 µM throughout.

`c1ccc(C2CCN([C@@H]3CCC4(C3)CN(c3nnco3)C4)CC2)c(OC2CCOCC2)c1` [Example 2F, (R)-2-(6-(4-(2-((tetrahydro-2H-pyran-4-yl)oxy)phenyl)piperidin-1-yl)-2-azaspiro[3.4]octan-2-yl)-1,3,4-oxadiazole]: the Emax in test [1] and in test [2] was 0% throughout. Further, the EC50 in test [1] and in test [2] was above 25 µM in each case.

`c1ccc(C2CCN([C@@H]3CCC4(C3)CN(c3nnco3)C4)CC2)c(OCC2CCOCC2)c1` [Example 2G, (R)-2-(6-(4-(2-((tetrahydro-2H-pyran-4-yl)methoxy)phenyl)piperidin-1-yl)-2-azaspiro[3.4]octan-2-yl)-1,3,4-oxadiazole]: in test [1], the Emax came to 0% and the EC50 is above 25 µM. Further, in test [2], the Emax amounted to 0% and the EC50 is above 25 µM.

Take `c1ccc(C2CCN([C@@H]3CCC4(C3)CN(c3nnco3)C4)CC2)c(C2CCOCC2)c1` [Example 2H, (R)-2-(6-(4-(2-(tetrahydro-2H-pyran-4-yl)phenyl)piperidin-1-yl)-2-azaspiro[3.4]octan-2-yl)-1,3,4-oxadiazole]: in test [1], the Emax worked out at 0% and the EC50 is above 25 µM. In addition, in test [2], the Emax came out at 0% and the EC50 is above 25 µM.

For the compound `Fc1ccc(C2CCOCC2)c(C2CCN([C@@H]3CCC4(C3)CN(c3nnco3)C4)CC2)c1` [Example 2I, (R)-2-(6-(4-(5-fluoro-2-(tetrahydro-2H-pyran-4-yl)phenyl)piperidin-1-yl)-2-azaspiro[3.4]octan-2-yl)-1,3,4-oxadiazole], in test [1], the Emax worked out at 0% and the EC50 is above 25 µM. Moreover, in test [2], the Emax was 0% and the EC50 is above 25 µM.

Regarding `c1ccc(C2CCOC2)c(C2CCN([C@@H]3CCC4(C3)CN(c3nnco3)C4)CC2)c1` (stereo partly drawn) [Example 2K, 2-((6R)-6-(4-(2-(tetrahydrofuran-3-yl)phenyl)piperidin-1-yl)-2-azaspiro[3.4]octan-2-yl)-1,3,4-oxadiazole], the Emax in test [1] and in test [2] was 0% throughout. In addition, the EC50 in test [1] and in test [2] was above 25 µM each time.

As to `c1ccc(C2CCN([C@@H]3CCC4(C3)CN(c3nnco3)C4)CC2)c(CC2CCOCC2)c1` [Example 2L, (R)-2-(6-(4-(2-((tetrahydro-2H-pyran-4-yl)methyl)phenyl)piperidin-1-yl)-2-azaspiro[3.4]octan-2-yl)-1,3,4-oxadiazole], in test [1], the Emax was 0% and the EC50 was above 25 µM. Moreover, in test [2], the Emax was determined as 0% and the EC50 was above 25 µM.

As for `c1ccc(C2CCN([C@@H]3CCC4(C3)CN(c3nnco3)C4)CC2)c(-c2ncco2)c1` [Example 2M, (R)-2-(6-(4-(2-(oxazol-2-yl)phenyl)piperidin-1-yl)-2-azaspiro[3.4]octan-2-yl)-1,3,4-oxadiazole], in test [1], the Emax was determined as 0% and the EC50 was above 25 µM. Also, in test [2], the Emax was 0% and the EC50 is above 25 µM.

Regarding `c1ccc(C2CCN([C@@H]3CCC4(C3)CN(c3nncs3)C4)CC2)c(OC2COC2)c1` [Example 3A, (R)-2-(6-(4-(2-(oxetan-3-yloxy)phenyl)piperidin-1-yl)-2-azaspiro[3.4]octan-2-yl)-1,3,4-thiadiazole], in test [1], the Emax is 0% and the EC50 was above 25 µM. Further, in test [2], the Emax turned out to be 0% and the EC50 is above 25 µM.

On to `c1ccc(C2CCN([C@@H]3CCC4(C3)CN(c3nncs3)C4)CC2)c(OC[C@H]2COCCO2)c1` [Example 3B, 2-((R)-6-(4-(2-(((R)-1,4-dioxan-2-yl)methoxy)phenyl)piperidin-1-yl)-2-azaspiro[3.4]octan-2-yl)-1,3,4-thiadiazole], for which, in test [1], the Emax stood at 0% and the EC50 was above 25 µM. For the same compound, in test [2], the Emax worked out at 0% and the EC50 was above 25 µM.

Turning to `c1ccc(C2CCN([C@@H]3CCC4(C3)CN(c3nncs3)C4)CC2)c(OC[C@@H]2COCCO2)c1` [Example 3C, 2-((R)-6-(4-(2-(((S)-1,4-dioxan-2-yl)methoxy)phenyl)piperidin-1-yl)-2-azaspiro[3.4]octan-2-yl)-1,3,4-thiadiazole], in test [1], the Emax was 0% and the EC50 was above 25 µM. In test [2], the Emax is 0% and the EC50 is above 25 µM.

On to `COc1ccccc1C1CCN([C@@H]2CCC3(C2)CN(c2nncs2)C3)CC1` [Example 3D, (R)-2-(6-(4-(2-methoxyphenyl)piperidin-1-yl)-2-azaspiro[3.4]octan-2-yl)-1,3,4-thiadiazole], for which, in test [1], the Emax was 0% and the EC50 was above 25 µM. In test [2], the Emax turned out to be 0% and the EC50 is above 25 µM.

Take `Fc1cccc(C2CCN([C@@H]3CCC4(C3)CN(c3nncs3)C4)CC2)c1OC1COC1` [Example 3E, (R)-2-(6-(4-(3-fluoro-2-(oxetan-3-yloxy)phenyl)piperidin-1-yl)-2-azaspiro[3.4]octan-2-yl)-1,3,4-thiadiazole]: in test [1], the Emax worked out at 0% and the EC50 is above 25 µM. Moreover, in test [2], the Emax was 0% and the EC50 was above 25 µM.

Turning to `COCCOc1ccccc1C1CCN([C@@H]2CCC3(C2)CN(c2nncs2)C3)CC1` [Example 3F, (R)-2-(6-(4-(2-(2-methoxyethoxy)phenyl)piperidin-1-yl)-2-azaspiro[3.4]octan-2-yl)-1,3,4-thiadiazole], in test [1], the Emax was determined as 0% and the EC50 is above 25 µM. Besides, in test [2], the Emax came to 0% and the EC50 was above 25 µM.

Turning to `CC(C)(O)COc1ccccc1C1CCN([C@@H]2CCC3(C2)CN(c2nncs2)C3)CC1` [Example 3G, (R)-1-(2-(1-(2-(1,3,4-thiadiazol-2-yl)-2-azaspiro[3.4]octan-6-yl)piperidin-4-yl)phenoxy)-2-methylpropan-2-ol], in test [1], the Emax was found to be 0% and the EC50 was above 25 µM. For the same compound, in test [2], the Emax was 0% and the EC50 is above 25 µM.

As for `CC(C)(O)CCOc1ccccc1C1CCN([C@@H]2CCC3(C2)CN(c2nncs2)C3)CC1` [Example 3H, (R)-4-(2-(1-(2-(1,3,4-thiadiazol-2-yl)-2-azaspiro[3.4]octan-6-yl)piperidin-4-yl)phenoxy)-2-methylbutan-2-ol], the Emax in test [1] and in test [2] was 0% in each case. Besides, the EC50 in test [1] and in test [2] was above 25 µM throughout.

`COc1ccccc1C1CCN([C@@H]2CCC3(C2)CN(c2ccns2)C3)CC1` [Example 3I, (R)-5-(6-(4-(2-methoxyphenyl)piperidin-1-yl)-2-azaspiro[3.4]octan-2-yl)isothiazole]: the Emax in test [1] and in test [2] was 0% in each case. For the same compound, the EC50 in test [1] and in test [2] was above 25 µM each time.

Take `COCCOc1ccccc1C1CCN([C@@H]2CCC3(C2)CN(c2ncns2)C3)CC1` [Example 3J, (R)-5-(6-(4-(2-(2-methoxyethoxy)phenyl)piperidin-1-yl)-2-azaspiro[3.4]octan-2-yl)-1,2,4-thiadiazole]: the Emax in test [1] and in test [2] was 0% throughout. The concentration for a half-maximal effect (EC50) in test [1] and in test [2] was above 25 µM each time.

As to `CC(C)(O)COc1ccccc1C1CCN([C@@H]2CCC3(C2)CN(c2ncns2)C3)CC1` [Example 3K, (R)-1-(2-(1-(2-(1,2,4-thiadiazol-5-yl)-2-azaspiro[3.4]octan-6-yl)piperidin-4-yl)phenoxy)-2-methylpropan-2-ol], in test [1], the Emax amounted to 0% and the EC50 is above 25 µM. Also, in test [2], the Emax came to 0% and the EC50 was above 25 µM.

Turning to `CC(C)(O)CCOc1ccccc1C1CCN([C@@H]2CCC3(C2)CN(c2ncns2)C3)CC1` [Example 3L, (R)-4-(2-(1-(2-(1,2,4-thiadiazol-5-yl)-2-azaspiro[3.4]octan-6-yl)piperidin-4-yl)phenoxy)-2-methylbutan-2-ol], in test [1], the Emax was 0% and the EC50 is above 25 µM. In addition, in test [2], the Emax came to 0% and the EC50 is above 25 µM.

As for `COc1ccccc1C1CCN([C@@H]2CCC3(C2)CN(c2nc(C)ns2)C3)CC1` [Example 3M, (R)-5-(6-(4-(2-methoxyphenyl)piperidin-1-yl)-2-azaspiro[3.4]octan-2-yl)-3-methyl-1,2,4-thiadiazole], in test [1], the Emax came out at 0% and the EC50 is above 25 µM. Also, in test [2], the Emax was 0% and the EC50 is above 25 µM.
